Results published in patent US12495798B2, “Nicotinamide compound and herbicidal composition comprising compound” (KOREA RESEARCH INSTITUTE OF CHEMICAL TECHNOLOGY, priority 2019, dated 2025).

Assays:
Type in all cases: in vivo
sorghum = experiment: Herbicidal activity test against upland field weeds (foliar treatment test); set-up: key to Foliar treatment herbicidal activity, Sorghum: 0 (no control); 100 (complete control); conditions: 50 g ai/ha, scale 0-100
Experimental: (§1) Experimental Example 1: Herbicidal Activity Test Against Upland Field Weeds (Foliar Treatment Test) Foliar treatment was performed as follows: After filling a square plastic pot having a surface area of 350 cm^2 with horticultural soil, seeds (10˜15 grains) or rootstocks (2 pieces) of 5 kinds of grassy weeds of sorghum, barnyard grass, quack grass, crabgrass, fall panicum, and 5 kinds of broadleaf weeds of black nightshade, indian jointvetch, velvetleaf, cocklebur, bindweed, which had been stored in a low temperature (6° C.), were sown. After growing for a certain period in greenhouse conditions (average temperature 30±5° C., light/dark=14/10 hours), test compound solutions were made by diluting with a preparation solution (including 50% acetone, 0.1% Tween-20) so that the final treatment amount of the test compounds was 50 or 75 g a.i./ha. The prepared test compound solution was used for treating foliage by hand-spraying 14 mL per pot in a fume hood. After the treatment, it was managed under the same greenhouse conditions as above, and after 14 days (after 21 days if necessary), the external symptoms and efficacy were investigated according to the scale of 0 (no control) to 100 (complete control). The results of Table 7 were obtained by evaluating weed control value to the untreated control by conducting visual assessment.

barnyard grass = experiment: as above; set-up: key to Foliar treatment herbicidal activity, barnyard grass: 0 (no control); 100 (complete control); conditions: 50 g ai/ha, scale 0-100
Experimental: as §1

quack grass = experiment: as above; set-up: key to Foliar treatment herbicidal activity, quack grass: 0 (no control); 100 (complete control); conditions: 50 g ai/ha, scale 0-100
Experimental: as §1

crabgrass = experiment: as above; set-up: key to Foliar treatment herbicidal activity, Crabgrass: 0 (no control); 100 (complete control); conditions: 50 g ai/ha, scale 0-100
Experimental: as §1

fall panicum = experiment: as above; set-up: key to Foliar treatment herbicidal activity, Fall panicum: 0 (no control); 100 (complete control); conditions: 50 g ai/ha, scale 0-100; for pest or weed control at 50 g/ha: Panicum dichotomiflorum
Experimental: as §1

black nightshade = experiment: as above; set-up: key to Foliar treatment herbicidal activity, black nightshade: 0 (no control); 100 (complete control); conditions: 50 g ai/ha, scale 0-100; for pest or weed control at 50 g/ha: Solanum nigrum
Experimental: as §1

indian jointvetch = experiment: as above; set-up: key to Foliar treatment herbicidal activity, Indian jointvetch: 0 (no control); 100 (complete control); conditions: 50 g ai/ha, scale 0-100
Experimental: as §1

velvetleaf = experiment: as above; set-up: key to Foliar treatment herbicidal activity, velvet leaf: 0 (no control); 100 (complete control); conditions: 50 g ai/ha; for Foliar treatment herbicidal activity, velvet leaf: scale 0-100; for pest or weed control at 50 g/ha: Abutilon theophrasti, scale 0-100, read-out: Foliar treatment herbicidal activity, velvet leaf
Experimental: as §1

cocklebur = experiment: as above; set-up: key to Foliar treatment herbicidal activity, Cocklebur: 0 (no control); 100 (complete control); conditions: 50 g ai/ha, scale 0-100; for pest or weed control at 50 g/ha: Xanthium strumarium
Experimental: as §1

bindweed = experiment: as above; set-up: key to Foliar treatment herbicidal activity, Bindweed: 0 (no control); 100 (complete control); conditions: 50 g ai/ha, scale 0-100
Experimental: as §1

corn = experiment: Phytotoxicity test for upland field crops (foliar treatment test); set-up: key: 0 (no harm); 9 (complete withered)
Experimental: (§2) Experimental Example 3: Phytotoxicity Test for Upland Field Crops (Foliar Treatment Test)
(§3) Foliar treatment was performed for grown crops and weeds in a square plastic pot having a surface area of 50 cm^2 filled with horticultural soil. As a fertilizer per pot, 0.5 g of horticultural mixed fertilizer (N:P:K=17:21:17) was treated by mixing in the upper soil. Five kinds of crops such as rice, wheat, corn, soybean, and cotton were sown in each pot, and after growing for a certain period in greenhouse conditions (average temperature 30±5° C., light/dark=14/10 hours), test compound solutions were made by diluting with the diluent (33% acetone, 0.1% Tween-20) so that the final treatment amount of the test compounds was 19˜300 g a.i./ha. The prepared test compound solutions were treated using a spray booth (SB6-016) at a treatment amount of 100 ml per 1 m^2 of treatment area. The treated plants were managed under the same greenhouse conditions as above, and external symptoms and phytotoxicity were investigated 7 and 14 days after treatment (after 21 days if necessary). In the evaluation of the phytotoxicity for the crop, the grade of 0 (no harm) to 9 (complete withered) was used. The results of Table 9 were obtained by evaluating crop phytotoxicity value to the untreated control.

cotton = experiment: as above; set-up: key: 0 (no harm); 9 (complete withered)
Experimental: as §2, §3

rice = experiment: as above; set-up: key: 0 (no harm); 9 (complete withered)
Experimental: as §2, §3

soybean = experiment: as above; set-up: key: 0 (no harm); 9 (complete withered)
Experimental: as §2, §3

wheat = experiment: as above; set-up: key: 0 (no harm); 9 (complete withered)
Experimental: as §2, §3

[1] = 50 g ai/ha, Corn (7 days after treatment)
[2] = 50 g ai/ha, Corn (14 days after treatment)
[3] = 100 g ai/ha, Corn (7 days after treatment)
[4] = 100 g ai/ha, Corn (14 days after treatment)
[5] = 50 g ai/ha, Cotton (7 days after treatment)
[6] = 50 g ai/ha, Cotton (14 days after treatment)
[7] = 100 g ai/ha, Cotton (7 days after treatment)
[8] = 100 g ai/ha, Cotton (14 days after treatment)
[9] = 50 g ai/ha, Rice (7 days after treatment)
[10] = 50 g ai/ha, Rice (14 days after treatment)
[11] = 100 g ai/ha, Rice (7 days after treatment)
[12] = 100 g ai/ha, Rice (14 days after treatment)
[13] = 50 g ai/ha, Soybean (7 days after treatment)
[14] = 50 g ai/ha, Soybean (14 days after treatment)
[15] = 100 g ai/ha, Soybean (7 days after treatment)
[16] = 100 g ai/ha, Soybean (14 days after treatment)
[17] = 50 g ai/ha, Wheat (7 days after treatment)
[18] = 50 g ai/ha, Wheat (14 days after treatment)
[19] = 100 g ai/ha, Wheat (7 days after treatment)
[20] = 100 g ai/ha, Wheat (14 days after treatment)

For `Cn1nnc(CNc2nc(C(F)(F)F)ccc2C(=O)Nc2nnnn2C)n1` [Compound No. 2-32, N-(1-methyl-1H-tetrazol-5-yl)-2-(((2-methyl-2H-tetrazol-5-yl)methyl)amino)-6-(trifluoromethyl)nicotinamide], which “Foliar treatment herbicidal activity, Sorghum” value (sorghum) is on record?
Its value is 0.

What about the “Foliar treatment herbicidal activity, barnyard grass” value (barnyard grass) of the same compound?
Its value is 0.

What about the “Foliar treatment herbicidal activity, quack grass” value (quack grass) of the same compound?
The value was 0.

What about the “Foliar treatment herbicidal activity, Crabgrass” value (crabgrass) of the same compound?
The value was 0.

What about the “Foliar treatment herbicidal activity, Fall panicum” value (fall panicum) of the same compound?
The value was 0.

And the pest or weed control at 50 g/ha (black nightshade)?
Its pest or weed control at 50 g/ha is 40%.

What about the “Foliar treatment herbicidal activity, Indian jointvetch” value (indian jointvetch) of the same compound?
Its value is 0.

And the “Foliar treatment herbicidal activity, velvet leaf” value (velvetleaf)?
The value was 0.

What about the “Foliar treatment herbicidal activity, Cocklebur” value (cocklebur) of the same compound?
The value was 0.

What about the “Foliar treatment herbicidal activity, Bindweed” value (bindweed) of the same compound?
Its value is 0.

`CN(Cc1nnn(C)n1)Cc1nc(C(F)(F)F)ccc1C(=O)Nc1nnnn1C` [Compound No. 2-93, 2-((methyl((2-methyl-2H-tetrazol-5-yl)methyl)amino)methyl)-N-(1-methyl-1H-tetrazol-5-yl)-6-(trifluoromethyl)nicotinamide] was tested. Which plant injury at 50 g/ha (sorghum; Sorghum) did it give?
The plant injury at 50 g/ha was 20%.

And the pest or weed control at 50 g/ha (barnyard grass; Echinochloa crus-galli)?
The pest or weed control at 50 g/ha was 20%.

And the “Foliar treatment herbicidal activity, quack grass” value (quack grass)?
Its value is 0.

What about the pest or weed control at 50 g/ha (crabgrass; Digitaria sanguinalis) of the same compound?
Its pest or weed control at 50 g/ha is 40%.

And the pest or weed control at 50 g/ha (fall panicum)?
The pest or weed control at 50 g/ha was 30%.

And the “Foliar treatment herbicidal activity, black nightshade” value (black nightshade)?
The value was 100.

And the pest or weed control at 50 g/ha (indian jointvetch)?
The pest or weed control at 50 g/ha was 70%.

What about the pest or weed control at 50 g/ha (velvetleaf) of the same compound?
Its pest or weed control at 50 g/ha is 80%.

What about the pest or weed control at 50 g/ha (cocklebur) of the same compound?
Its pest or weed control at 50 g/ha is 95%.

What about the pest or weed control at 50 g/ha (bindweed) of the same compound?
The pest or weed control at 50 g/ha was 50%.

For `Cn1nnnc1CSc1nc(C(F)(F)F)ccc1C(=S)Nc1nnnn1C` [1-44], which “Foliar treatment phytotoxicity, Corn” value (corn; [1]) is on record?
Its value is 5.

What about the “Foliar treatment phytotoxicity, Corn” value (corn; [2]) of the same compound?
The value was 3.

What about the “Foliar treatment phytotoxicity, Corn” value (corn; [3]) of the same compound?
The value was 5.

What about the “Foliar treatment phytotoxicity, Corn” value (corn; [4]) of the same compound?
The value was 3.

What about the “Foliar treatment phytotoxicity, Cotton” value (cotton; [5]) of the same compound?
The value was 4.

And the “Foliar treatment phytotoxicity, Cotton” value (cotton; [6])?
Its value is 9.

And the “Foliar treatment phytotoxicity, Cotton” value (cotton; [7])?
The value was 5.

And the “Foliar treatment phytotoxicity, Cotton” value (cotton; [8])?
Its value is 9.

What about the “Foliar treatment phytotoxicity, Rice” value (rice; [9]) of the same compound?
Its value is 6.

What about the “Foliar treatment phytotoxicity, Rice” value (rice; [10]) of the same compound?
Its value is 9.

And the “Foliar treatment phytotoxicity, Rice” value (rice; [11])?
The value was 6.

And the “Foliar treatment phytotoxicity, Rice” value (rice; [12])?
Its value is 9.

And the “Foliar treatment phytotoxicity, Soybean” value (soybean; [13])?
Its value is 6.

And the “Foliar treatment phytotoxicity, Soybean” value (soybean; [14])?
Its value is 7.

And the “Foliar treatment phytotoxicity, Soybean” value (soybean; [15])?
The value was 6.

What about the “Foliar treatment phytotoxicity, Soybean” value (soybean; [16]) of the same compound?
The value was 7.

What about the “Foliar treatment phytotoxicity, Wheat” value (wheat; [17]) of the same compound?
Its value is 0.

What about the “Foliar treatment phytotoxicity, Wheat” value (wheat; [18]) of the same compound?
The value was 0.

And the “Foliar treatment phytotoxicity, Wheat” value (wheat; [19])?
The value was 0.

And the “Foliar treatment phytotoxicity, Wheat” value (wheat; [20])?
The value was 0.

What does the source list for `Cn1nnnc1NC(=O)c1ccc(C(F)(F)F)nc1COCc1nnnn1C(F)F` [Compound No. 1-85, 2-(((1-(difluoromethyl)-1H-tetrazol-5-yl)methoxy)methyl)-N-(1-methyl-1H-tetrazol-5-yl)-6-(trifluoromethyl)nicotinamide]?
Foliar treatment herbicidal activity, Sorghum (sorghum): 0; Foliar treatment herbicidal activity, barnyard grass (barnyard grass): 0; Foliar treatment herbicidal activity, quack grass (quack grass): 0; Foliar treatment herbicidal activity, Crabgrass (crabgrass): 0; pest or weed control at 50 g/ha (fall panicum): 40%; pest or weed control at 50 g/ha (indian jointvetch): 40%; pest or weed control at 50 g/ha (velvetleaf): 20%; pest or weed control at 50 g/ha (cocklebur): 90%; pest or weed control at 50 g/ha (bindweed): 40%

For `Cn1nnnc1COc1nc(C(F)(F)F)cc(Cl)c1C(=O)Nc1nnnn1C` [Compound No. 1-13, 4-chloro-N-(1-methyl-1H-tetrazol-5-yl)-2-((1-methyl-1H-tetrazol-5-yl)methoxy)-6-(trifluoromethyl)nicotinamide], which “Foliar treatment herbicidal activity, Sorghum” value (sorghum) is on record?
Its value is 0.

And the “Foliar treatment herbicidal activity, barnyard grass” value (barnyard grass)?
Its value is 0.

And the “Foliar treatment herbicidal activity, quack grass” value (quack grass)?
The value was 0.

What about the “Foliar treatment herbicidal activity, Crabgrass” value (crabgrass) of the same compound?
The value was 0.

What about the “Foliar treatment herbicidal activity, Fall panicum” value (fall panicum) of the same compound?
Its value is 0.

What about the pest or weed control at 50 g/ha (black nightshade) of the same compound?
Its pest or weed control at 50 g/ha is 60%.

What about the “Foliar treatment herbicidal activity, Indian jointvetch” value (indian jointvetch) of the same compound?
The value was 0.

And the “Foliar treatment herbicidal activity, velvet leaf” value (velvetleaf)?
The value was 0.

And the pest or weed control at 50 g/ha (cocklebur)?
Its pest or weed control at 50 g/ha is 20%.

And the “Foliar treatment herbicidal activity, Bindweed” value (bindweed)?
Its value is 0.

Which results are given for `COC(=O)OC(C)N(C(=O)c1ccc(C(F)(F)F)nc1COCc1ncn(C)n1)c1nnnn1C` (stereo not shown) [Compound No. 4-1, methyl(1-(2-(((1-methyl-1H-1,2,4-triazol-3-yl)methoxy)methyl)-N-(1-methyl-1H-tetrazol-5-yl)-6-(trifluoromethyl)nicotinamido)ethyl)carbonate]?
Foliar treatment phytotoxicity, Corn (corn; [1]): 0; Foliar treatment phytotoxicity, Corn (corn; [2]): 0; Foliar treatment phytotoxicity, Corn (corn; [3]): 0; Foliar treatment phytotoxicity, Corn (corn; [4]): 0; Foliar treatment phytotoxicity, Cotton (cotton; [5]): 3; Foliar treatment phytotoxicity, Cotton (cotton; [6]): 8; Foliar treatment phytotoxicity, Cotton (cotton; [7]): 3; Foliar treatment phytotoxicity, Cotton (cotton; [8]): 8; Foliar treatment phytotoxicity, Rice (rice; [9]): 2; Foliar treatment phytotoxicity, Rice (rice; [10]): 6; Foliar treatment phytotoxicity, Rice (rice; [11]): 3; Foliar treatment phytotoxicity, Rice (rice; [12]): 7; Foliar treatment phytotoxicity, Soybean (soybean; [13]): 4; Foliar treatment phytotoxicity, Soybean (soybean; [14]): 6; Foliar treatment phytotoxicity, Soybean (soybean; [15]): 4; Foliar treatment phytotoxicity, Soybean (soybean; [16]): 8; Foliar treatment phytotoxicity, Wheat (wheat; [17]): 0; Foliar treatment phytotoxicity, Wheat (wheat; [18]): 0; Foliar treatment phytotoxicity, Wheat (wheat; [19]): 0; Foliar treatment phytotoxicity, Wheat (wheat; [20]): 0
